Reference: ChEMBL document CHEMBL6078620, “Design and synthesis of visible light-activatable photocaged peroxides for optical control of ROS-mediated cellular signaling” (Bioorg Med Chem, 2024)
One block for each compound: values may come before it. The source made the active and inactive calls. No cut-off for these calls is given here.

Assays:
[1] = Photophysical property of the compound assessed as fluorescence quantum yield by UV-Visible spectrophotometric analysis; type: physicochemical
[2] = Chemical stability of compound in PBS buffer at pH 7.4 assessed as parent compound remaining measured after 60 mins by UHPLC analysis; type: physicochemical; settings: read-out: Stability
HeLa [3] = assay: Cytotoxicity against human HeLa cells assessed as TBHP release by measuring fluorescence intensity at 50 uM incubated for 5 mins in presence of light irradiation at 375 nm by confocal fluorescence microscopic analysis; type: functional, cell-based
HeLa [4] = assay: Cytotoxicity against human HeLa cells assessed as reduction in cell survival upto 50 uM in presence of light irradiation by CCK-8 assay; type: functional; settings: up to 50 µM
HeLa [5] = assay: Cytotoxicity against human HeLa cells at 25 uM by CCK-8 assay; type: functional, cell-based
HeLa [6] = assay: Cytotoxicity against human HeLa cells assessed as reduction in cell survival upto 50 uM by CCK-8 assay; type: functional; settings: up to 50 µM
HeLa [7] = assay: Cytotoxicity against human HeLa cells assessed as TBHP release by measuring fluorescence intensity at 10 uM incubated for 5 mins in presence of light irradiation at 375 to 455 nm by confocal fluorescence microscopic analysis; type: functional, cell-based

Activity [1]: 0.04
SMILES: CC(=O)OC(=O)OCc1cc(=O)oc2cc(O)c(Br)cc12

SMILES: CC(C)(C)OOC(=O)OCc1cc(=O)oc2c3c(c(Br)cc12)NCC3
Activity [1]: 0.14
remaining at 1 h [2]: 68%

SMILES: CC(C)(C)OOC(=O)OCc1cc(=O)oc2cc(O)c(Br)cc12
Activity [1]: 0.13
Activity (HeLa [3]): Active
remaining at 1 h [2]: 45%

SMILES: CC(C)(C)OOC(=O)OCc1cc(=O)oc2c3c(c(Br)cc12)NCCC3
Activity (HeLa [4]): 46%
Activity [1]: 0.082
Activity (HeLa [5]): Active
Activity (HeLa [6]): 63%
Activity (HeLa [7]): Active
remaining at 1 h [2]: 50%
